# According to patent US6541490B1, “Bipyridine manganese complexes” (Eukarion, Inc., priority 1998, dated 2003):
# Tests used:
# Assay type in all cases: biochemical
# [1] = Catalase (CAT) assay: removal of hydrogen peroxide, HRP/ABTS read-out; settings: amount of hydrogen peroxide removed per minute, per mmol of compound; 0.05M Tris HCl pH 7.4, 25° C., 60 mins
# From the text: This method measures catalase activity as the ability to remove hydrogen peroxide from solution in the absence of hydrogen donors over one hour. After this time any remaining peroxide was removed by introduction to the mixture of high concentrations of horseradish peroxidase and the hydrogen donor 2,2′-azino-di-[3-ethyl-benzothiazoline-(6)-sulphonic acid (ABTS). This rapid reaction produces peroxide-concentration-dependant product with a maximal absorbance at 405 nm.
# (§1) The assays for compound antioxidant activity were carried out in 96-well microtitre plates using a DIAS modular assay robot instrument (Dynatech Ltd.) Compounds were solublised in DMF at 10 mM. DMF concentrations in the assay never exceeded 1%, were tolerated and were controlled for in assay plates.
# Hydrogen peroxide (Sigma H1009) 100 mM was incubated with various concentrations of compound in 0.05M Tris HCI pH 7.4 at 25° C. for 60 mins. […] Plates were then read for absorbance at 405 nm. A standard curve for absorbance against known hydrogen peroxide concentration was constructed. Absorbance data for wells containing compound were interpolated against this curve using the software tools Excel (Microsoft Corp.) and Xlfit (ID Business Solutions). […]
# The catalase assay procedure described above provides certain advantages over previously described assays. […] The oxidation of ABTS results in a colour change which can be measured. […]
# [2] = Superoxide dismutase (SOD) assay: xanthene oxidase/hypoxanthene, XTT reduction; settings: SOD activity from IC50 of XTT reduction (one International Unit), normalised; 0.05M Tris/HCl pH 7.4, 25° C.
# Experimental: This method is adapted from what has become the standard method for the measurement of SOD activity (McCord J. M., Fridovich, I., J. Biol. Chem. 244, 6049-6055, 1969). Briefly, a steady-state production of superoxide anion was maintained by the action of xanthene oxidase (XO) on hypoxanthene (HX) at physiological pH. Presence of the anion was measured by the reduction of XTT (3′-{1-(phenylamino)-carbonyl]-3,4-tetrazolium]-bis(4-methoxy-6-nitro)benzsulphonic acid to a water-soluble product with an absorbance maximum at ˜470 nm. Hypoxanthene concentrations were titrated so as to give a steady-state rate of XTT reduction of 0.025 Optical Density Units (OD) per minute at 25° C.
# as §1
# Xanthene oxidase (Sigma X1875) 0.01 U/ml and XTT (Sigma X4251), 0.5 mM and hypoxanthene (Sigma H9377), typically at […], were incubated in the presence of various doses of compounds at 25° C. in 0.05M Tris/HCI pH 7.4. Rates of XTT reduction were measured over 5 minutes at 490 nm. Dose-response curves were constructed for inhibition by the compound of control rates of XTT reduction. […]
# [3] = Peroxidase (POD) assay: hydrogen peroxide removal with hydrogen donor ABTS; settings: ABTS 3 mM, 0.05M Tris HCl pH 7.4, 25° C., 2 minutes, interpolated against horseradish peroxidase standard curve
# Experimental: This method measures the ability of the compounds to remove hydrogen peroxide in the presence of the hydrogen donor 2,2′-azino-di-[3-ethyl-benzothiazoline-(6)-sulphonic acid (ABTS) (Galati, H., J. Clin. Chem. Clin. Biochem. (1979) 17, 1-7).
# as §1
# ABTS (Sigma A-1888) 3 mM was incubated with various concentrations of compound in 0.05M Tris HCI pH 7.4 at 25° C. A range of standard concentrations of horseradish peroxidase (Sigma P-6140) were included on each microtitre plate. Hydrogen peroxide (Sigma H1009) 100 mM was added and the plate incubated at 25° C. for 2 minutes. Absorbance at 405 nm was measured and the rates of ABTS […] calculated. A standard curve was constructed using data from wells containing known concentrations of peroxidase. Data for wells containing compound were interpolated against this curve using the software tools Excel (Microsoft Corp.) and Xlfit (ID Business Solutions). Estimations of peroxidase activity were given as International Units of peroxidase activity/mmol compound.
smiles,measurement,setting,value
"CCCCCCc1cccc2c1[O][Mn]([O]C(C)=O)[O]c1c(CCCCCC)cccc1-c1cccc(n1)-c1cccc-2n1 [Example 18, 6,6′-bis(3-Hexyl-2-hydroxyphenyl)-2,2′-bipyridine-manganese(III)acetate]",CAT,[1],0.0083
same,SOD,[2],41.43 U/mmol compound
same,POD,[3],209.92 International Units of peroxidase activity/mmol compound
